Square brackets hold non-standard residues; d marks the D form. Peptide text beside a SMILES is read from it. Tic = O=C(O)[C@@H]1Cc2ccccc2CN1; Abu = CC[C@H](N)C(=O)O
Columns and labels:
[1] = system: medullary thyroid carcinoma primary cultures; assay: Cell viability of MTC primary cultures (MTT); format: cell-based, human; details: 10^−8 M, forty-eight hours
SSTR1 = SSTR1 (Homo sapiens, UniProt P30872); assay: SSTR receptor binding affinity (Ki), SSTR1; details: read-out: SSTR Specificity Ki SSTR1
SSTR1, sequence (P30872 whole entry): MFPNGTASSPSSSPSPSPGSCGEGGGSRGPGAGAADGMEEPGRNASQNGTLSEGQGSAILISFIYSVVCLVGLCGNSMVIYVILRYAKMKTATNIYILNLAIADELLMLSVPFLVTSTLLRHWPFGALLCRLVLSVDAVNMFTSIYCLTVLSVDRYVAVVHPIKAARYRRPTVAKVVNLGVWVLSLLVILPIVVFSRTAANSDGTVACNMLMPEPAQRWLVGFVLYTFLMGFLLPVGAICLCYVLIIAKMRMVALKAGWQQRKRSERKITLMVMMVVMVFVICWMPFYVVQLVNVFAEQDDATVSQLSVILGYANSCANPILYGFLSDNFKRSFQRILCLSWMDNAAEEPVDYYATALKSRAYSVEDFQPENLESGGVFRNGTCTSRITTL

[2] = system: medullary thyroid carcinoma primary cultures; assay: Calcitonin secretion by MTC primary cultures (IRMA); format: cell-based, human; details: 10^−8 M, six hours
SSTR5 = SSTR5 (Homo sapiens, UniProt P35346); assay: SSTR receptor binding affinity (Ki), SSTR5; details: read-out: SSTR Specificity Ki SSTR5
SSTR5, sequence (P35346 whole entry): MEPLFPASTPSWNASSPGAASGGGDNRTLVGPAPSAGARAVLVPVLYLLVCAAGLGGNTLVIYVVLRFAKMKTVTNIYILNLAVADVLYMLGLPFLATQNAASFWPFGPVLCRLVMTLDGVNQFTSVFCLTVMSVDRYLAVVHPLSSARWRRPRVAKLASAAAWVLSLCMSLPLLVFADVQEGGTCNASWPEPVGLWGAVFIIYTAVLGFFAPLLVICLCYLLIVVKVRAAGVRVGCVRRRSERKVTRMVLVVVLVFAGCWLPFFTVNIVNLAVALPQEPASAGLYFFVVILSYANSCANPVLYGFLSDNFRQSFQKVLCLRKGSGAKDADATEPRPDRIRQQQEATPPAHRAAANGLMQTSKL

SSTR3 = SSTR3 (Homo sapiens, UniProt P32745); assay: SSTR receptor binding affinity (Ki), SSTR3; details: read-out: SSTR Specificity Ki SSTR3
SSTR3, sequence (P32745 whole entry): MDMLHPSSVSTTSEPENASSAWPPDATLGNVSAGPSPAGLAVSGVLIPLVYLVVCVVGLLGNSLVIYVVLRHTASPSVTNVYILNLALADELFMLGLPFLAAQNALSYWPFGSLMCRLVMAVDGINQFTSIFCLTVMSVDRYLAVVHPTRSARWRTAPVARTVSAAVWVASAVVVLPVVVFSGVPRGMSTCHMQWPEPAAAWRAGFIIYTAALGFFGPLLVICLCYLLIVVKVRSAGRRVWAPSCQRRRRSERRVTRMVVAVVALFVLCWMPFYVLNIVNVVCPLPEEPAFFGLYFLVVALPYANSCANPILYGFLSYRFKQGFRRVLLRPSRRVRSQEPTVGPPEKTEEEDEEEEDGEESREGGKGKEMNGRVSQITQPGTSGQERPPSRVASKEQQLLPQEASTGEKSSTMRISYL

SSTR4 = SSTR4 (Homo sapiens, UniProt P31391); assay: SSTR receptor binding affinity (Ki), SSTR4; details: read-out: SSTR Specificity Ki SSTR4
SSTR4, sequence (P31391 whole entry): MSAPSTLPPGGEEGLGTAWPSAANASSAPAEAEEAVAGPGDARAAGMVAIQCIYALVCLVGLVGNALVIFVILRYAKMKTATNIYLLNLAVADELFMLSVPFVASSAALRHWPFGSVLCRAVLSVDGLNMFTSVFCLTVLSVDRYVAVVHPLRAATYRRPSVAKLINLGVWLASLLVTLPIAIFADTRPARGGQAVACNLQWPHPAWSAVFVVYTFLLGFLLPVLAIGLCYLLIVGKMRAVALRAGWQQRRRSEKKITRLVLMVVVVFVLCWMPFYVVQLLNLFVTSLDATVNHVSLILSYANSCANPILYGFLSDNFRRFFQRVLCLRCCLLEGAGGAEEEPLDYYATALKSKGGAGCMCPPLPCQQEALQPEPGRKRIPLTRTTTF

SSTR2 = SSTR2 (Homo sapiens, UniProt P30874); assay: SSTR receptor binding affinity (Ki), SSTR2; details: read-out: SSTR Specificity Ki SSTR2
SSTR2, sequence (P30874 whole entry): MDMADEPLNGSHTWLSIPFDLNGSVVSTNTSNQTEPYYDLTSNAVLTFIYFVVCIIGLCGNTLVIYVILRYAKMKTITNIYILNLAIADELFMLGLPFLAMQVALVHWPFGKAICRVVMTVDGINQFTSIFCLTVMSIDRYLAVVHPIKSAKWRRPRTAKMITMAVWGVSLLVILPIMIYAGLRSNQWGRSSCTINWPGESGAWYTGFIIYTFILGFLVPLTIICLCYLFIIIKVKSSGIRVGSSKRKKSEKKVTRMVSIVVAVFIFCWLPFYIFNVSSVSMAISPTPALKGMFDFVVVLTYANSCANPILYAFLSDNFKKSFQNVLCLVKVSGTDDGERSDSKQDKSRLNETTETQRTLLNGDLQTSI

[3] = MTC primary culture #1 (non responder)
[4] = MTC primary culture #2 (non responder)
[5] = MTC primary culture #3 (responder)
[6] = MTC primary culture #4 (non responder)
[7] = MTC primary culture #5 (responder)
[8] = MTC primary culture #6 (responder)
[9] = MTC primary culture #7 (responder)
[10] = MTC primary culture #8 (non responder)
[11] = MTC primary culture #9 (non responder)
[12] = MTC primary culture #10 (non responder)
[13] = MTC primary culture #11 (responder)
[14] = MTC primary culture #12 (responder)
[15] = MTC primary culture #13 (responder)
[16] = MTC primary culture #14 (responder)
[17] = MTC primary culture #15 (responder)
[18] = MTC primary culture #16 (responder)
[19] = MTC primary culture #17 (non responder)
[20] = MTC primary culture #18 (non responder)
[21] = group B (lanreotide non-responsive) mean

CC[C@@H]1NC(=O)[C@H](CCCCN)NC(=O)[C@@H](Cc2c[nH]c3ccccc23)NC(=O)[C@H](Cc2ccc(O)cc2)NC(=O)[C@@H]2Cc3ccccc3CN2C(=O)[C@H](Cc2ccccc2)NC1=O [Cmpd #2, c[Tic-Tyr-D-Trp-Lys-Abu-Phe]] (cyclo([Tic]Y[dW]K[Abu]F))
% cell viability reduction vs. control [1, 3]: −5.0%
% cell viability reduction vs. control [1, 4]: −56.4%
% cell viability reduction vs. control [1, 5]: −3.2%
% cell viability reduction vs. control [1, 6]: −17.9%
% cell viability reduction vs. control [1, 7]: −8.6%
% cell viability reduction vs. control [1, 8]: 3.2%
% cell viability reduction vs. control [1, 9]: 54.4%
% cell viability reduction vs. control [1, 10]: −15.3%
% cell viability reduction vs. control [1, 11]: −8.8%
% cell viability reduction vs. control [1, 12]: 12.1%
% cell viability reduction vs. control [1, 13]: −0.4%
% cell viability reduction vs. control [1, 14]: 15.8%
% cell viability reduction vs. control [1, 15]: −5.3%
% cell viability reduction vs. control [1, 16]: 8.2%
% cell viability reduction vs. control [1, 17]: 5.6%
% cell viability reduction vs. control [1, 18]: −3.0%
% cell viability reduction vs. control [1, 19]: −10.3%
% cell viability reduction vs. control [1, 20]: −20.6%
cell viability, change vs. control (signed, negative = reduced) [1, 21]: −13%
Ki (SSTR1): 1000 nM
% CT secretion inhibition vs. control [2, 3]: −6.1%
% CT secretion inhibition vs. control [2, 4]: −4.3%
% CT secretion inhibition vs. control [2, 5]: −36.0%
% CT secretion inhibition vs. control [2, 6]: 8.9%
% CT secretion inhibition vs. control [2, 7]: −8.6%
% CT secretion inhibition vs. control [2, 8]: −5.7%
% CT secretion inhibition vs. control [2, 9]: −51.3%
% CT secretion inhibition vs. control [2, 10]: −2.6%
% CT secretion inhibition vs. control [2, 11]: 6.7%
% CT secretion inhibition vs. control [2, 12]: 11.6%
% CT secretion inhibition vs. control [2, 13]: 10.3%
% CT secretion inhibition vs. control [2, 14]: −12.4%
% CT secretion inhibition vs. control [2, 15]: −48.6%
% CT secretion inhibition vs. control [2, 16]: 1.6%
% CT secretion inhibition vs. control [2, 17]: −22.9%
% CT secretion inhibition vs. control [2, 18]: −31.7%
% CT secretion inhibition vs. control [2, 19]: −2.6%
% CT secretion inhibition vs. control [2, 20]: −1.5%
calcitonin secretion, change vs. control (signed, negative = reduced) ([2]; group A (lanreotide responsive) mean): −23%
calcitonin secretion, change vs. control (signed, negative = reduced) [2, 21]: not reduced
Ki (SSTR5): 214 nM
Ki (SSTR3): 412 nM
Ki (SSTR4): 1000 nM
Ki (SSTR2): 0.34 nM
